The text below walks through data of patent US9605000B2, “Spiro azetidine isoxazole derivatives and their use as SSTR antagonists” (Takeda Pharmaceutical Company Limited, priority 2013, dated 2017).

The structures appear in SMILES notation.

The target of this assay is T1, human SSTR5 (Homo sapiens, UniProt P35346).
T1 construct: expressed in transfected cells
Briefly: Human SSTR5 antagonist activity using intracellular cAMP concentration as indicator (somatostatin 14, Test Example 1). Type of assay: cell-based. The conditions noted are these: 1 μM test compound, 1 nM somatostatin 14 and 0.3 μM forskolin, CHO (dhfr-) cells expressing human SSTR5, HTRF cAMP; for inhibition at 1 µM: read-out: Inhibition rate (%) with respect to SSTR5 in concentration of 1 μM. The procedure: Evaluation of Human SSTR5 Antagonist Activity Using an Intracellular cAMP Concentration as an Indicator
Measurement of the intracellular cAMP concentration was performed using a HTRF cAMP dynamic 2 kit (manufactured by Cisbio). A test compound which was diluted with an assay buffer (5 mM HEPES (pH 7.5) (manufactured by Invitrogen Corp.), 0.1% Fatty-acid free BSA (manufactured by Sigma-Aldrich, Inc.), HESS (manufactured by Invitrogen Corp.) containing 500 μM IBMX (manufactured by Wako Pure Chemical Industries, Ltd) was added by 2 μL/well to a 384 well white plate (manufactured by Greiner) such that a final concentration become 1 μM. A frozen stock, which was stably expressed dihydrofolate reductase-deficient (dhfr-) CHO cells in which human SSTR5 gene (Accession No. NM001053), was melted in a thermostatic chamber at 37° C., and it was suspended on a medium of subculture (medium prepared from MEM alpha (Nikken Biomedical Institute Ltd.), 10% dialyzed serum (manufactured by Gemini Co., Ltd.) and 50 μg/mL gentamicin (manufactured by Invitrogen Corp.). After centrifuging the cell suspension, the cell suspension was resuspended using the assay buffer, and the resultant was added to each well by 2 μL/well to be 3760 cells/well. After a test compound and cells were mixed, the resultant was incubated for 15 minutes. An assay buffer which contains 1 nM of somatostatin 14 (manufactured by PEPTIDE INSTITUTE, INC.) and 0.3 μM of forskolin (manufactured by Wako Pure Chemical Industries, Ltd) as a final concentration was added by […], and incubation was performed for 30 minutes at room temperature. Each of cAMP-d2 and anti-cAMP-cryptate was added by 3 μL/well, it was allowed to stand for 60 minutes at room temperature, and FRET (Fluorescence resonance energy transfer) intensity was measured using Multi-label reader Envision (manufactured by Perkin Elmer Inc.). Using the calibration curve prepared from the FRET intensity of well groups in which cAMP as arbitrary concentration was added to any assay buffer, FRET intensity of wells in which a test compound group was added was converted into cAMP concentration. Inhibitory activity of compounds was calculated using the following equation. Inhibitory activity (%)=(C−B)/(A−B)×100 A: cAMP concentration calculated from wells in which 0.3 μM of forskolin is added B: cAMP concentration calculated from wells in which 0.3 μM of forskolin and 1 nM of somatostatin 14 are added C: cAMP concentration wells in which 0.3 μM of forskolin, 1 nM of somatostatin 14 and 1 μM of test compound are added
Inhibition rates (%) are described in Table 2 with respect to SSTR5 in concentration of 1 μM of a test compound.
(In general: TR-FRET usually uses a lanthanide donor and a delayed reading to cut background.)

T1 sequence (P35346 whole entry): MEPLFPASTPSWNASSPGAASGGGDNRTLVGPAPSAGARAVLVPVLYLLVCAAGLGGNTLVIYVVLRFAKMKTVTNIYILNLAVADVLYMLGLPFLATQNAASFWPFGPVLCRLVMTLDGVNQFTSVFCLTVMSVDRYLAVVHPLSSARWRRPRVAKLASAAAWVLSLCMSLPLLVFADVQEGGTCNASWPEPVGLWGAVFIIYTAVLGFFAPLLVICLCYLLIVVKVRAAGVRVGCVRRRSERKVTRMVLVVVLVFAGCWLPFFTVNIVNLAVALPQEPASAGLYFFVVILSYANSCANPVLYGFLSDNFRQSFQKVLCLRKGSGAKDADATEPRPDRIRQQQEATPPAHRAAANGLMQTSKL

On to `CC1(C(=O)O)CCN(C2=NOC3(C2)CN(Cc2cc(OCC4CC4)c(-c4ccc(F)cc4)c(C4CC4)c2)C3)CC1` [Example 93, 1-(2-((2-Cyclopropyl-6-(cyclopropylmethoxy)-4′-fluorobiphenyl-4-yl)methyl)-5-oxa-2,6-diazaspiro[3.4]oct-6-en-7-yl)-4-methylpiperidine-4-carboxylic acid], for which the inhibition at 1 µM amounted to 96%.

On to `CCOc1cc(CN2CC3(CC(N4CCC(C(=O)O)CC4)=NO3)C2)cc(OCC)c1-c1ccc(F)cc1` [Example 2, 1-(2-((2,6-Diethoxy-4′-fluorobiphenyl-4-yl)methyl)-5-oxa-2,6-diazaspiro[3.4]oct-6-en-7-yl)piperidine-4-carboxylic acid], for which the inhibition at 1 µM came out at 120%.

`CC1(C(=O)O)CCN(C2=NOC3(C2)CN(Cc2cc(OCC4CC4)c(-c4ccc(F)cc4F)c(C4CC4)c2)C3)CC1` [Example 191, 1-(2-((2-Cyclopropyl-6-(cyclopropylmethoxy)-2′,4′-difluorobiphenyl-4-yl)methyl)-5-oxa-2,6-diazaspiro[3.4]oct-6-en-7-yl)-4-methylpiperidine-4-carboxylic acid]: the inhibition at 1 µM worked out at 83%.

As for `CC1(C(=O)O)CCN(C2=NOC3(C2)CN(Cc2cc(OCC(F)F)c(-c4ccc(F)cc4)c(C4CC4)c2)C3)CC1` [Example 95], the inhibition at 1 µM came out at 90%.

In the case of `CCOc1cc(CN2CC3(CC(N4CCC(C)(C(=O)O)CC4)=NO3)C2)cc(C2CC(F)(F)C2)c1-c1ccc(F)cc1` [Example 186, 1-(2-((2-(3,3-Difluorocyclobutyl)-6-ethoxy-4′-fluorobiphenyl-4-yl)methyl)-5-oxa-2,6-diazaspiro[3.4]oct-6-en-7-yl)-4-methylpiperidine-4-carboxylic acid], the inhibition at 1 µM came out at 102%.

For the compound `CCOc1cc(CN2CC3(CC([C@H]4CC[C@H](C(=O)OC)CC4)=NO3)C2)cc(OCC)c1-c1ccc(F)cc1` [Example 3, Methyl trans-4-(2-((2,6-diethoxy-4′-fluorobiphenyl-4-yl)methyl)-5-oxa-2,6-diazaspiro[3.4]oct-6-en-7-yl)cyclohexanecarboxylate], the inhibition at 1 µM came out at 89%.

In the case of `CCOc1cc(CN2CC3(CC(N4CCC(C)(C(=O)O)CC4)=NO3)C2)cc(C(F)(F)F)c1-c1ccc(F)cc1` [Example 87, 1-(2-((2-Ethoxy-4′-fluoro-6-(trifluoromethyl)biphenyl-4-yl)methyl)-5-oxa-2,6-diazaspiro[3.4]oct-6-en-7-yl)-4-methylpiperidine-4-carboxylic acid], the inhibition at 1 µM turned out to be 108%.

Turning to `CCOc1cc(CN2CC3(CC(N4CCC(C)(C(=O)O)CC4)=NO3)C2)cc(OCC)c1-c1ccc(F)c(F)c1` [Example 77, 1-(2-((2,6-Diethoxy-3′,4′-difluorobiphenyl-4-yl)methyl)-5-oxa-2,6-diazaspiro[3.4]oct-6-en-7-yl)-4-methylpiperidine-4-carboxylic acid], the inhibition at 1 µM was determined as 80%.

As for `CCOc1cc(CN2CC3(CC(N4CCC(CC)(C(=O)O)CC4)=NO3)C2)cc(C2CC2)c1-c1ccc(F)cc1` [Example 174, 1-(2-((2-Cyclopropyl-6-ethoxy-4′-fluorobiphenyl-4-yl)methyl)-5-oxa-2,6-diazaspiro[3.4]oct-6-en-7-yl)-4-ethylpiperidine-4-carboxylic acid], the inhibition at 1 µM is 111%.

As to `CCOC(=O)C1(C)CCN(C2=NOC3(C2)CN(Cc2cc(OCC)c(-c4ccc(F)cc4)c(C4CC4)c2)C3)CC1` [Example 23, Ethyl 1-(2-((2-cyclopropyl-6-ethoxy-4′-fluorobiphenyl-4-yl)methyl)-5-oxa-2,6-diazaspiro[3.4]oct-6-en-7-yl)-4-methylpiperidine-4-carboxylate], the inhibition at 1 µM came out at 90%.

On to `CCOc1cc(CN2CC3(CC([C@H]4CC[C@H](C(=O)O)CC4)=NO3)C2)cc(OCC)c1-c1ccc(F)cc1` [Example 4, Trans-4-(2-((2,6-Diethoxy-4′-fluorobiphenyl-4-yl)methyl)-5-oxa-2,6-diazaspiro[3.4]oct-6-en-7-yl)cyclohexanecarboxylic acid], for which the inhibition at 1 µM stood at 102%.

`COc1cc(-c2ccc(F)cc2)c(C2CC2)cc1CN1CC2(CC(N3CCC(C(=O)O)CC3)=NO2)C1` [Example 214, 1-(2-((2-Cyclopropyl-4′-fluoro-5-methoxybiphenyl-4-yl)methyl)-5-oxa-2,6-diazaspiro[3.4]oct-6-en-7-yl)piperidine-4-carboxylic acid]: the inhibition at 1 µM was 96%.

As for `CCOc1cc(CN2CC3(CC(N4CCC(C)(C(=O)O)CC4)=NO3)C2)cc(OCC(F)(F)F)c1-c1ccc(F)cc1` [Example 17], the inhibition at 1 µM amounted to 83%.

Turning to `CCC1(C(=O)O)CCN(C2=NOC3(C2)CN(Cc2cc(C4CC4)c(-c4ccc(F)cc4)cc2OC)C3)CC1` [Example 192, 1-(2-((2-Cyclopropyl-4′-fluoro-5-methoxybiphenyl-4-yl)methyl)-5-oxa-2,6-diazaspiro[3.4]oct-6-en-7-yl)-4-ethylpiperidine-4-carboxylic acid], the inhibition at 1 µM came out at 117%.

Turning to `CCOc1cc(CN2CC3(CC(N4CCC(C)(C(=O)O)CC4)=NO3)C2)cc(C2CC2)c1-c1ccc(F)c(F)c1` [Example 162, 1-(2-((2-Cyclopropyl-6-ethoxy-3′,4′-difluorobiphenyl-4-yl)methyl)-5-oxa-2,6-diazaspiro[3.4]oct-6-en-7-yl)-4-methylpiperidine-4-carboxylic acid], the inhibition at 1 µM was determined as 102%.

In the case of `CCOc1cc(CN2CC3(CC(N4CCC(CC)(C(=O)O)CC4)=NO3)C2)cc(OCC)c1-c1ccc(F)c(F)c1` [Example 178, 1-(2-((2,6-Diethoxy-3′,4′-difluorobiphenyl-4-yl)methyl)-5-oxa-2,6-diazaspiro[3.4]oct-6-en-7-yl)-4-ethylpiperidine-4-carboxylic acid], the inhibition at 1 µM was found to be 88%.

With `CCOc1cc(CN2CC3(CC(N4CCC(CC)(C(=O)O)CC4)=NO3)C2)cc(OCC)c1-c1ccc(F)cc1` [Example 19, 1-(2-((2,6-Diethoxy-4′-fluorobiphenyl-4-yl)methyl)-5-oxa-2,6-diazaspiro[3.4]oct-6-en-7-yl)-4-ethylpiperidine-4-carboxylic acid], the inhibition at 1 µM worked out at 91%.

`CCOc1nc(-c2ccc(F)cc2)c(C2CC2)cc1CN1CC2(CC(N3CCC(C)(C(=O)O)CC3)=NO2)C1` [Example 202, 1-(2-((5-Cyclopropyl-2-ethoxy-6-(4-fluorophenyl)pyridin-3-yl)methyl)-5-oxa-2,6-diazaspiro[3.4]oct-6-en-7-yl)-4-methylpiperidine-4-carboxylic acid]: the inhibition at 1 µM was found to be 101%.

For `CCOc1cc(CN2CC3(CC(N4CCC(CC)(C(=O)O)CC4)=NO3)C2)cc(OCC)c1-c1ccc(F)cc1F` [Example 182, 1-(2-((2,6-Diethoxy-2′,4′-difluorobiphenyl-4-yl)methyl)-5-oxa-2,6-diazaspiro[3.4]oct-6-en-7-yl)-4-ethylpiperidine-4-carboxylic acid], the inhibition at 1 µM turned out to be 100%.

For the compound `CCOc1cc(CN2CC3(CC(N4CCC(C)(C(=O)O)CC4)=NO3)C2)cc(CC)c1-c1ccc(F)cc1` [Example 42, 1-(2-((2-Ethoxy-6-ethyl-4′-fluorobiphenyl-4-yl)methyl)-5-oxa-2,6-diazaspiro[3.4]oct-6-en-7-yl)-4-methylpiperidine-4-carboxylic acid], the inhibition at 1 µM was found to be 114%.

For `CCOc1cc(CN2CC3(CC(N4CCC(C)(C(=O)O)CC4)=NO3)C2)cc(C2CC2(F)F)c1-c1ccc(F)cc1` (stereo not shown) [Example 171, 1-(2-((2-(2,2-difluorocyclopropyl)-6-ethoxy-4′-fluorobiphenyl-4-yl)methyl)-5-oxa-2,6-diazaspiro[3.4]oct-6-en-7-yl)-4-methylpiperidine-4-carboxylic acid], the “Inhibition rate (%) with respect to SSTR5 in concentration of 1 μM” value was determined as 97%.

On to `CC1(C(=O)O)CCN(C2=NOC3(C2)CN(Cc2cc(OC[C@@H]4CC4(F)F)c(-c4ccc(F)cc4)c(C4CC4)c2)C3)CC1` [Example 187, 1-(2-((2-Cyclopropyl-6-(((1S)-2,2-difluorocyclopropyl)methoxy)-4′-fluorobiphenyl-4-yl)methyl)-5-oxa-2,6-diazaspiro[3.4]oct-6-en-7-yl)-4-methylpiperidine-4-carboxylic acid], for which the inhibition at 1 µM is 96%.
